Results as given in PubChem BioAssay (NCI).
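In this assay, cells in 96-well plates receive the compound at five concentrations for 48 hours. Endpoints are linearly interpolated between the surrounding concentrations. The concentration for 50% growth inhibition is given as GI50. TGI marks complete inhibition of growth.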

Experiments:
Assay in all cases: DTP human tumour cell line panel, 48 h
[1] = test system: NCI-H522 lung
[2] = test system: SF-295 CNS
[3] = test system: IGROV1 ovarian
[4] = test system: ACHN renal
[5] = test system: NCI-H23 lung
[6] = test system: OVCAR-3 ovarian
[7] = test system: SK-MEL-2 melanoma
[8] = test system: SR leukemia
[9] = test system: HCT-116 colon

| Compound | GI50 [1] [µM] | TGI [1] [µM] | GI50 [2] [µM] | TGI [2] [µM] | GI50 [3] [µM] | TGI [3] [µM] | GI50 [4] [µM] | TGI [4] [µM] | GI50 [5] [µM] | TGI [5] [µM] | GI50 [6] [µM] | TGI [6] [µM] | GI50 [7] [µM] | TGI [7] [µM] | TGI [8] [µM] | TGI [9] [µM] |
| --- | --- | --- | --- | --- | --- | --- | --- | --- | --- | --- | --- | --- | --- | --- | --- | --- |
| O=C([CH-]C(=O)c1ccccc1)c1ccccc1.O=C([CH-]C(=O)c1ccccc1)c1ccccc1.O=C([CH-]C(=O)c1ccccc1)c1ccccc1.[Cl-].[Zr+4] | 11.4 | 46.6 | 12.8 | > 100 | 34.3 | > 100 | 22 | > 100 | 16.9 | 99.7 | 10.6 | 39.4 | 10 | 41.2 |  |  |
| COc1ccc2c(c1)[n+](=O)c(C(=O)CC(=O)C(=O)Nc1cccc(C)c1C)c(C)n2[O-] |  | > 100 |  | > 100 |  | > 100 |  | > 100 |  | > 100 |  | > 100 |  | > 100 | > 100 | > 100 |
| Cc1ccccc1N=Nc1c(-c2ccccc2)nn(C(=O)CC(=O)Nc2cccc(Cl)c2)c1-c1ccccc1 |  |  |  | > 31.6 |  | > 31.6 |  | > 31.6 |  | > 31.6 |  | > 31.6 |  | 26 | 20.3 | 17.8 |
| Cc1cc2c(cc1CO)N1Cc3cc(C)c(CO)cc3N(C2)C1 |  | > 100 |  | > 100 |  | > 100 |  |  |  | > 100 |  | > 100 |  |  |  | > 100 |
| C=Cc1c(C)c2cc3[nH]c(cc4nc(cc5nc(cc1[nH]2)C(C)=C5CCC(=O)N(CC)CC)C(CCC(=O)N(CC)CC)=C4C)c(C)c3C=C |  | > 100 |  | > 100 |  | > 100 |  | > 100 |  | > 100 |  | > 100 |  | > 100 | > 100 | > 100 |
| O=C(NC(=O)c1cn(CCN2CCN(C(=O)NCCCCCCNC(=O)N3CCN(CCn4cc(C(=O)NC(=O)OCc5ccccc5)c(=O)[nH]c4=O)CC3)CC2)c(=O)[nH]c1=O)OCc1ccccc1 |  |  |  | > 100 |  | > 100 |  | > 100 |  | > 100 |  | > 100 |  |  |  | > 100 |
| O=C(/C(=N/Nc1ccccc1)c1ccc([N+](=O)[O-])cc1)c1ccc([N+](=O)[O-])cc1 |  | > 100 |  | > 100 |  | > 100 |  | > 100 |  | > 100 |  | > 100 |  | > 100 | > 100 | > 100 |
| CCC(C)(O)c1cn(-c2ccc(S(=O)(=O)O)cc2)nn1 (configuration not stated) |  | > 100 |  | > 100 |  | > 100 |  | > 100 |  | > 100 |  | > 100 |  | > 100 |  | > 100 |
| CC1(C)C(=O)C(=Cc2ccco2)C1=O |  | > 100 |  | > 100 |  | > 100 |  | > 100 |  | > 100 |  |  |  | > 100 | > 100 | > 100 |
| c1ccc(C2CC(c3ccc4ccccc4c3)=Nc3ccccc3S2)cc1 (configuration not stated) |  | 33.2 |  | 31.7 |  | 49 |  | 31.2 |  | 28.9 |  | 38.7 |  | 34.6 | > 100 | 30 |
| O=c1c2cccnc2ncn1CCCN1CCCC1 |  | > 100 |  | > 100 |  | > 100 |  | > 100 |  | > 100 |  | > 100 |  | > 100 | > 100 | > 100 |
| CC(=O)OC1C(O[C@H]2CC[C@]34O[C@]35CC[C@]3(C)C(C6(C)CC[C@@H](C(C)(C)O)O6)[C@@H](O)CC3(C)[C@@H]5CC(OC3OC(CO)C(O)C(O)C3O)C4C2(C)C)OCC(O)C1O (some centres not stated) |  | > 100 |  | > 100 |  | > 100 |  | > 100 |  | > 100 |  | > 100 |  | > 100 |  | > 100 |
| COc1cc2c3c(c1OC)C(=O)C=C3N(S(=O)(=O)c1ccc(C)cc1)CC2 |  | 38.6 |  | > 100 |  | > 100 |  | > 100 |  | > 100 |  | > 100 |  | > 100 | > 100 | > 100 |
| C/C(CC(=O)Nc1ccc(NC(=O)C/C(C)=N\NC(N)=O)cc1)=N/NC(N)=O |  | > 100 |  | > 100 |  | > 100 |  | > 100 |  | > 100 |  | > 100 |  | > 100 | > 62.5 | > 100 |
| C=C(CO)CC(/C=C(\C)CC/C=C(\C)CCl)OC(C)=O (configuration not stated) |  | > 100 |  | > 100 |  | > 100 |  | > 100 |  | > 100 |  | > 100 |  | > 100 |  | > 100 |
| CCCCCCCCCCOC(=O)c1cc[n+](C)cc1 |  | 30 |  | 30.3 |  | 30.4 |  | 33.2 |  | 35 |  | 28.9 |  | 49.1 | 32.7 | 36.6 |
| O=C(N/C(=C/c1cccc([N+](=O)[O-])c1)c1nc2ccc(Cl)cc2[nH]1)c1ccccc1 |  | 39.1 |  | > 100 |  | 27 |  | 48.9 |  | 99.5 |  | 76.6 |  | 50.3 | 41.3 | 25.8 |
